For assay [1], the target named is T1, ODC enzyme activity (Homo sapiens, UniProt P11926).
T1 construct: from tissue; host or cells: human epithelial tissues (in vivo, oral dosing); finding cited from the literature
T1 sequence (P11926 1-461): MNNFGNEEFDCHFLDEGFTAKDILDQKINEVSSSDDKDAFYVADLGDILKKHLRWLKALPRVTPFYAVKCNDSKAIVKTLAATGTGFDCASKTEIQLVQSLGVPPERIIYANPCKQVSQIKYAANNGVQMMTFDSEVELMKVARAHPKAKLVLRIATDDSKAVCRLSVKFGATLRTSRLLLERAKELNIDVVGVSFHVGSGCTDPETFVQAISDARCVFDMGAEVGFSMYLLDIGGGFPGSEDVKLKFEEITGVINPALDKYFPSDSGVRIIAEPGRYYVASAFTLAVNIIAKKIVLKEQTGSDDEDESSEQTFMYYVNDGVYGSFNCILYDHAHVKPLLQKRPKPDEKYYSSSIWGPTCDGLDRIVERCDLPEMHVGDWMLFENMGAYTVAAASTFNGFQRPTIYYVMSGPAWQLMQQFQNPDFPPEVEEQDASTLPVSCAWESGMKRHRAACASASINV
Conditions: oral, daily, humans; cited from earlier work.

Assay [2] relates to C-peptide. Description: Phase I/II trial in new onset T1D: C-peptide by 2-h MMTT. It counts as in vivo, human. Conditions: for C-peptide area under the curve values compared to the placebo group: 6-month post-randomization visit. The protocol: This study was double-blind, placebo-controlled, 2:1 random assigned, phase I/II clinic trial for individuals with type 1 diabetes. The blinded dose-ranging study enrolled persons with new onset T1D with documented continued residual C-peptide production. […] After a 3 month wash-out period, the durability of effect was assessed. [table]

The test system of assay [3] is APC-dependent intestinal tumorigenesis. Conditions: mice; cited from earlier work.
Assay [4] has as its system T cells. Conditions: mice; cited from earlier work.
The test system of assay [5] is islet replication. Conditions: in vitro; cited from earlier work.

The source of these data is patent US20260137642A1 (CANCER PREVENTION PHARMACEUTICALS, INC., priority 2021, published 2026).

As to `NCCCC(N)(C(=O)O)C(F)F` (stereo not shown) [eflornithine, 2,5-diamino-2-(difluoromethyl) pentanoic acid], the “ODC enzyme activity and polyamine contents in epithelial tissues” value in assay [1] is “inhibits ODC enzyme activity and polyamine contents”. Moreover, the “C-peptide area under the curve values compared to the placebo group” value in assay [2] (750 mg/m^2 dose) and in assay [2] (1000 mg/m^2 dose) was “significantly higher” in each case. The “β cell function compared to placebo” value in assay [2] (at higher doses, 3-month oral course) is listed as “greater β cell function compared to placebo”. In assay [3], the APC-dependent intestinal tumorigenesis result was “decrease APC-dependent intestinal tumorigenesis”. In addition, the “Effect on T cells” value in assay [4] is “deplete T cells”. For the same compound, the “Effect on islet replication” value in assay [5] is given as “little effect on islet replication”.
